Measured values reported in patent publication US20080096981A1, “Antibodies against inducible TH2 cell factors” (Genaera Corporation, priority 1999, published 2008).
“Also recorded” adds a separate entry of the source.

System: TH2AF1
Experiment: TH2AF1 expression in lung of C57BL/6 mice after intratracheal instillation of recombinant cytokines
Type: in vivo, mouse
Conditions: recombinant cytokine instilled into trachea of C57BL/6 mice, FIG. 5
Method: To confirm that the expression of IL-9 was critically related to the expression of TH2AF1 and to control for genetic background specifically, recombinant murine IL-9 was introduced into the lung of murine strain C57BL/6. Recombinant IL-9 was instilled into the trachea of anesthetized mice by addition of 50 μl of a 0.1 mg/ml IL-9 solution or vehicle alone (0.1% bovine serum albumin) daily for ten days. After ten days, the mice were euthanized and lungs extracted for either RNA expression analysis using Trizol as described by the manufacturer (Gibco-BRL) or Western blot analysis to determine levels of IL-9 instilled.
Expression of TH2AF1 RNA was measured as described in Example 3. […] Ribosomal RNAs (rRNA, lower panel) were stained using ethidium bromide (lower panel) to control for RNA loading.

## interferon gamma: recombinant TH1 associated cytokine
  induction of TH2AF1 expression in the lung (steady state mRNA): did not induce and not

B1: IL-9: recombinant murine IL-9, TH2 associated cytokine (protein, UniProt P15247 19-144, looked up)
Interleukin-9: QRCSTTWGIRDTNYLIENLKDDPPSKCSCSGNVTSCLCLSVPTDDCTTPCYREGLLQLTNATQKSRLLPVFHRVKRIVEVLKNITCPSFSCEKPCNQTMAGNTLSFLKSLLGTFQKTEMQRQKSRP
  induction of TH2AF1 expression in the lung (steady state mRNA): expressed; also recorded: induced the expression
